Laboratory results reported in patent US5266561A, “Treatment of type 2 diabetes mellitus” (Amylin Pharmaceuticals, Inc., priority 1991, dated 1993).
Where no end group is shown, it is not given here.

How the values were obtained:
rat islet cells [1] = conditions: literature statement; cited from earlier work
rat islet cells [2] = test: Glucose-stimulated insulin secretion from isolated rat islets of Langerhans; format: cell-based; conditions: glucose 10 mmol/L; for RELATIVE INSULIN SECRETION INHIBITION: reduction from control
Protocol: All experiments were performed by known methods used in experimental practice. See, e.g., Lacey P E, and Kostianovsky M, Method for the isolation of intact islets of Langerhans from the rat Dancreas. Diabetes 1967; 16:35-39.
Briefly, rats were killed, and islets of Langerhans were isolated from their pancreases. Experiments were performed either with freshly isolated islets or after overnight incubation of islets (23 h) in standard culture medium and conditions at 37° C. […] Incubation of islets for these experiments was carried out in standard Krebs-Heinsleit buffer, and it was verified that the addition of the 1.0 mmol/L citrate buffer had no effect on the pH of the incubation medium. Stimulation of islets was carried out at the standard stimulatory glucose concentration of 10 mmol/L.
Production of insulin is expressed as μU/islet/h. All experiments were performed with five replicates per point. The integrity of the islet response was assessed by comparing the responses after stimulation of different aliquots of islets by two and ten mmol/L glucose, respectively, and the strength of the inhibitory response was judged against that induced by 1 μg/ml (650 nmol/L) somatostatin. […] See Arimura A. Biomed res 1981; 2:233-257. […] See Petterson M, Ahren B, Bottcher G, Sundler F, Endocrinology 1986; 119:865-869.
The results are shown in TABLE 5 below and all results are expressed as ± standard error of the mean (s.e.m.). The significance of differences between the means of groups is assessed by the t-test. The result of stimulation by 10 mmol/L glucose is compared with the results of stimulation at 2 mmol/L glucose. In all other experimental conditions, the significance of the inhibitory effect is measured against the effect of 10 mmol/L glucose alone.

[3] = target: T1, insulin receptor on red blood cells; test: Displacement of insulin from its receptor on red blood cells; format: binding
T1 construct: endogenous in cells; host or cells: red blood cells

In the case of `C[C@H](N)C(=O)NCC(=O)N[C@H]1CSSC[C@@H](C(=O)O)NC(=O)[C@H](CO)NC(=O)[C@H]([C@@H](C)O)NC(=O)[C@H](Cc2ccccc2)NC(=O)[C@H]([C@@H](C)O)NC(=O)[C@H](CCCCN)NC(=O)[C@H](Cc2c[nH]c3ccccc23)NC(=O)[C@H](Cc2ccccc2)NC(=O)[C@H](Cc2ccccc2)NC(=O)[C@H](CC(N)=O)NC(=O)[C@H](CCCCN)NC1=O` [Somatostatin, reference compound], the “inhibition of the insulin secretory response of islet B-cells to glucose” value (rat islet cells [1]) is listed as “known, potent inhibitor”, the “INSULIN PRODUCTION Mean value” (rat islet cells [2]; 650 nmol/L) is listed as 44 μU/islet/hr and the “RELATIVE INSULIN SECRETION INHIBITION” value (rat islet cells [2]; 650 nmol/L) is listed as 45%.

For “CGRP 27-37 (FVPTNVGSKAF; ends and bridges not checked; UniProt P06881 109-119, looked up, fragment)”, the “INSULIN PRODUCTION Mean value” (rat islet cells [2]; 10 nmol/L) was 36 μU/islet/hr, the “RELATIVE INSULIN SECRETION INHIBITION” value (rat islet cells [2]; 10 nmol/L) was 55% and the “INSULIN PRODUCTION Mean value” (rat islet cells [2]; 100 nmol/L) was 36 μU/islet/hr. The “RELATIVE INSULIN SECRETION INHIBITION” value (rat islet cells [2]; 100 nmol/L) was 55%, the “INSULIN PRODUCTION Mean value” (rat islet cells [2]; 1000 nmol/L) was 46 μU/islet/hr and the “RELATIVE INSULIN SECRETION INHIBITION” value (rat islet cells [2]; 1000 nmol/L) was 42%.

With “amylin: 37-residue peptide from pancreatic amyloid of Type 2 diabetics; source (synthetic or native) not stated at these places (KCNTATCATQRLANFLVHSSNNFGAILSSTNVGSNTY; Islet amyloid polypeptide; UniProt P10997 34-70, looked up)” the “displacing insulin from its receptor on red blood cells” value [3] was “not capable of significantly displacing insulin”.
